Earlier results as cited in patent US20100280255A1, “PROCESS FOR MAKING SUBSTITUTED 2-AMINO-THIAZOLONES” (AMGEN INC., priority 2007, published 2010).

Key:
normal subjects = details: ingestion
healthy human volunteers = healthy human volunteers treated

## CC1(C)[C@@H](OC(=O)CCC(=O)O)CC[C@]2(C)[C@H]3C(=O)C=C4[C@@H]5C[C@@](C)(C(=O)O)CC[C@]5(C)CC[C@@]4(C)[C@]3(C)CC[C@@H]12 [carbenoxolone]
Normal subjects
  reduction of the intraocular pressure: 20%
Healthy human volunteers
  hepatic insulin sensitivity: improved
Bone nodule formation
  negative effect (of glucocorticoids) on bone nodule formation: blocked
